Data: publication PMC8922279, “Identification of β-Lactams Active against Mycobacterium tuberculosis by a Consortium of Pharmaceutical Companies and Academic Institutions” (ACS Infectious Diseases, 2022)

What was measured:
S. aureus = experiment: Microbial spectrum, S. aureus; assay type: cell-based, Staphylococcus aureus; conditions: clavulanate 4 μg/mL; Table S4
Mtb H37Rv [1] = experiment: MIC90 against nonreplicating (NR, 4-stress) Mtb H37Rv, with or without clavulanate; assay type: cell-based, Mycobacterium tuberculosis; conditions: 4-stress nonreplicating, Table S4; for Mtb H37Rv NR + CLAV (MIC90): clavulanate 4 μg/mL; for Mtb H37Rv NR (MIC90): no clavulanate
E. coli = experiment: Microbial spectrum, E. coli; assay type: cell-based, Escherichia coli; conditions: clavulanate 4 μg/mL; Table S4
C. albicans = experiment: Microbial spectrum, C. albicans; assay type: cell-based, Candida albicans; conditions: no clavulanate; Table S4
Mtb H37Rv [2] = experiment: MIC90 against replicating (R) Mtb H37Rv, with or without clavulanate; assay type: cell-based, Mycobacterium tuberculosis; conditions: Table S4; for Mtb H37Rv R + CLAV (MIC90): clavulanate 4 μg/mL; for Mtb H37Rv R (MIC90): no clavulanate
P. aeruginosa = experiment: Microbial spectrum, P. aeruginosa; assay type: cell-based, Pseudomonas aeruginosa; conditions: clavulanate 4 μg/mL; Table S4

| Structure (SMILES) | S.aureus R + CLAV (MIC90) (S. aureus) | Mtb H37Rv NR + CLAV (MIC90) (Mtb H37Rv [1]) | Mtb H37Rv NR (MIC90) (Mtb H37Rv [1]) | E.coli R + CLAV (MIC90) (E. coli) | C.albicans R (MIC90) (C. albicans) | Mtb H37Rv R + CLAV (MIC90) (Mtb H37Rv [2]) | Mtb H37Rv R (MIC90) (Mtb H37Rv [2]) | P.aeruginosa R + CLAV (MIC90) (P. aeruginosa) |
| --- | --- | --- | --- | --- | --- | --- | --- | --- |
| O=C(CSc1cccc[n+]1[O-])N[C@@H]1C(=O)N2C(C(=O)O)=C(CSc3cccc[n+]3[O-])CS[C@H]12 [TBBL-0000003] | 4.3 µM | 3.5 µM | 3.2 µM | 44.1 µM | > 100 µM | 3.8 µM | 4.8 µM | > 100 µM |
| CC(O)Cn1nnnc1SCC1=C(C(=O)O)N2C(=O)[C@@H](NC(=O)Cc3csc(=O)s3)[C@H]2SC1 (stereo partly shown) [TBBL-0000325] | 0.6 µM | > 100 µM | > 100 µM | 3.8 µM | > 100 µM | 1.4 µM | 53.2 µM | > 100 µM |
| C=CCn1nnnc1SCC1=C(C(=O)O)N2C(=O)[C@@H](NC(=O)Cc3ccc(C4=NCCN4)cc3)[C@H]2SC1 [TBBL-0000312] | 1.1 µM | > 100 µM | > 100 µM | > 100 µM | > 100 µM | 0.8 µM | 22.1 µM | > 100 µM |
| CC(=O)OCC1=C(C(=O)O)N2C(=O)[C@@H](NC(=O)CSc3nc4ccccc4s3)[C@H]2SC1 [TBBL-0000010] | 0.2 µM | > 100 µM | > 100 µM | > 100 µM | > 100 µM | 3.9 µM | 62 µM | > 100 µM |
| CCc1cc[n+](CC2=C(C(=O)[O-])N3C(=O)[C@@H](NC(=O)Cc4cccs4)[C@H]3SC2)cc1 [TBBL-0000418] | 0.5 µM | > 100 µM | > 100 µM | 7 µM | > 100 µM | 1.4 µM | 100 µM | > 100 µM |
| O=C(Cc1cccs1)N[C@@H]1C(=O)N2C(C(=O)O)=C(C[n+]3ccccn3)CS[C@H]12 [TBBL-0000466] | 0.5 µM | > 100 µM | > 100 µM | 35.1 µM | > 100 µM | 1.8 µM | 39 µM | > 100 µM |
| O=C(Cn1cnnn1)N[C@@H]1C(=O)N2C(C(=O)O)=C(CSc3cccc[n+]3[O-])CS[C@H]12 [TBBL-0000002] | 3.7 µM | 3 µM | 4.4 µM | 15.3 µM | > 100 µM | 5.8 µM | 5.7 µM | > 100 µM |
| Nc1nnc(SCC2=C(C(=O)O)N3C(=O)[C@@H](NC(=O)CSc4cc(Cl)ccc4Cl)[C@H]3SC2)s1 [TBBL-0000467] | < 0.1 µM | > 100 µM | > 100 µM | > 100 µM | > 100 µM | 1.5 µM | 52.2 µM | > 100 µM |
| CCn1nnnc1SCC1=C(C(=O)O)N2C(=O)[C@@H](NC(=O)Cc3ccc(C4=NCCCN4)cc3)[C@H]2SC1 [TBBL-0000318] | 2 µM | > 100 µM | > 100 µM | 60.5 µM | > 100 µM | 0.8 µM | 24.5 µM | > 100 µM |
| O=C(Cc1cccs1)N[C@@H]1C(=O)N2C(C(=O)[O-])=C(C[n+]3ccccc3)CS[C@H]12 [TBBL-0000493] | 0.8 µM | > 100 µM | > 100 µM | 37.9 µM | > 100 µM | 2.2 µM | 50 µM | > 100 µM |
| CCCn1nnnc1SCC1=C(C(=O)O)N2C(=O)[C@@H](NC(=O)Cc3ccc(C4=NCCN4)cc3)[C@H]2SC1 [TBBL-0000311] | 0.9 µM | > 100 µM | > 100 µM | > 100 µM | > 100 µM | 0.8 µM | 14.1 µM | > 100 µM |
| Cn1nnnc1SCC1=C(C(=O)O)N2C(=O)[C@@H](NC(=O)CSc3cc(Cl)ccc3Cl)[C@H]2SC1 [TBBL-0000446] | < 0.1 µM | > 100 µM | > 100 µM | 13.3 µM | > 100 µM | 1.5 µM | 20.7 µM | > 100 µM |
| Cn1nnnc1SCC1=C(C(=O)O)N2C(=O)[C@@H](NC(=O)Cc3ccc(C4=NCCN4)cc3)[C@H]2SC1 [TBBL-0000323] | 1.8 µM | > 100 µM | > 100 µM | 14 µM | > 100 µM | 0.8 µM | 31.9 µM | > 100 µM |
| N=C(N)SCc1ccccc1SC1=C(C(=O)O)N2C(=O)[C@@H](NC(=O)C(N)c3ccccc3)[C@H]2CC1 (stereo partly shown) [TBBL-0000435] | 0.8 µM | > 100 µM | > 100 µM | > 100 µM | > 100 µM | 1.1 µM | 90.2 µM | > 100 µM |
